Assay results as given in patent publication US8211662B2, “Nitroreductase enzymatic substrates” (Biomerieux, priority 2007, dated 2012).

Legend:
Assay in all cases: Nitroreductase detection on Columbia agar, colonies read under UV
Details in all cases: Table 4; 100 mg/l in Columbia agar, 24 h 37° C., UV 360-365 nm
[1] = tested on: Candida glabrata NCPF 3943; format: cell-based; design: key to Intensity of fluorescence, Candida glabrata NCPF3943 / F: fluorescence (intensity), Candida glabrata NCPF 3943 / Intensity of the fluorescence, Candida glabrata NCPF 3943: − = no fluorescence detected; +/− = weak fluorescence; + = medium fluorescence; ++ = strong fluorescence
Method: (§1) A mass of 40 mg of each substrate was dissolved in 4 ml of dimethylformamide (DMF). This solution was entirely taken up in 400 ml of Columbia agar autoclaved beforehand and kept molten at 50° C. The final concentration for each substrate was 100 mg/l.
(§2) Each of the media was distributed into Petri dishes 90 mm in diameter, in a proportion of 20 ml per dish.
(§3) 18 microorganism strains derived from collections and belonging to various species of bacteria and of yeasts were inoculated onto these media by semi-quantitative isolation of 10 μl of a suspension at 0.5 McFarland diluted to 1/20. The media were incubated for 24 hours at 37° C., then the colonies formed were examined visually under UV illumination at 360-365 nm.

[2] = tested on: Morganella morganii 462403 (wild); format: cell-based; design: key to Intensity of fluorescence, Morganella morganii 462403 / F: fluorescence (intensity), Morganella morganii 462403 (wild) / Intensity of the fluorescence, Morganella morganii 462403 (wild): − = no fluorescence detected; +/− = weak fluorescence; + = medium fluorescence; ++ = strong fluorescence
Method: as §1, §2, §3

[3] = tested on: MRSA NCTC 11939; format: cell-based, Staphylococcus aureus; design: key: − = no fluorescence detected; +/− = weak fluorescence; + = medium fluorescence; ++ = strong fluorescence
Method: as §1, §2, §3

[4] = tested on: Acinetobacter baumanii ATCC 19606; format: cell-based; design: key to Intensity of fluorescence, Acinetobacter baumanii ATCC 19606 / Intensity of the fluorescence, Acinetobacter baumanii ATCC 19606: − = no fluorescence detected; +/− = weak fluorescence; + = medium fluorescence; ++ = strong fluorescence
Method: as §1, §2, §3

[5] = tested on: Staphylococcus aureus NCTC 6571; format: cell-based; design: key: − = no fluorescence detected; +/− = weak fluorescence; + = medium fluorescence; ++ = strong fluorescence
Method: as §1, §2, §3

[6] = tested on: Enterobacter cloacae NCTC 11936; format: cell-based; design: key: − = no fluorescence detected; +/− = weak fluorescence; + = medium fluorescence; ++ = strong fluorescence
Method: as §1, §2, §3

[7] = tested on: Enterococcus faecalis NCTC 775; format: cell-based; design: key: − = no fluorescence detected; +/− = weak fluorescence; + = medium fluorescence; ++ = strong fluorescence
Method: as §1, §2, §3

[8] = tested on: Serratia marcescens NCTC 10211; format: cell-based; design: key: − = no fluorescence detected; +/− = weak fluorescence; + = medium fluorescence; ++ = strong fluorescence
Method: as §1, §2, §3

[9] = tested on: Yersinia enterocolitica NCTC 11176; format: cell-based; design: key: − = no fluorescence detected; +/− = weak fluorescence; + = medium fluorescence; ++ = strong fluorescence
Method: as §1, §2, §3

[10] = tested on: Staphylococcus epidermidis NCTC 11047; format: cell-based; design: key: − = no fluorescence detected; +/− = weak fluorescence; + = medium fluorescence; ++ = strong fluorescence
Method: as §1, §2, §3

[11] = tested on: Listeria monocytogenes NCTC 11994; format: cell-based; design: key: − = no fluorescence detected; +/− = weak fluorescence; + = medium fluorescence; ++ = strong fluorescence
Method: as §1, §2, §3

[12] = tested on: Candida albicans ATCC 90028; format: cell-based; design: key: − = no fluorescence detected; +/− = weak fluorescence; + = medium fluorescence; ++ = strong fluorescence
Method: as §1, §2, §3

[13] = tested on: Enterococcus faecium NCTC 7171; format: cell-based; design: key: − = no fluorescence detected; +/− = weak fluorescence; + = medium fluorescence; ++ = strong fluorescence
Method: as §1, §2, §3

[14] = tested on: Streptococcus pyogenes NCTC 8306; format: cell-based; design: key: − = no fluorescence detected; +/− = weak fluorescence; + = medium fluorescence; ++ = strong fluorescence
Method: as §1, §2, §3

[15] = tested on: Providencia rettgeri NCTC 7475; format: cell-based; design: key: − = no fluorescence detected; +/− = weak fluorescence; + = medium fluorescence; ++ = strong fluorescence
Method: as §1, §2, §3

[16] = tested on: Bacillus subtilis NCTC 9372; format: cell-based; design: key: − = no fluorescence detected; +/− = weak fluorescence; + = medium fluorescence; ++ = strong fluorescence
Method: as §1, §2, §3

[17] = tested on: Citrobacter freundii 46262 (wild); format: cell-based; design: key: − = no fluorescence detected; +/− = weak fluorescence; + = medium fluorescence; ++ = strong fluorescence
Method: as §1, §2, §3

[18] = tested on: Pseudomonas aeruginosa NCTC 10662; format: cell-based; design: key: − = no fluorescence detected; +/− = weak fluorescence; + = medium fluorescence; ++ = strong fluorescence
Method: as §1, §2, §3

[19] = tested on: Escherichia coli NCTC 10418; format: cell-based; design: key: − = no fluorescence detected; +/− = weak fluorescence; + = medium fluorescence; ++ = strong fluorescence
Method: as §1, §2, §3

[20] = tested on: Salmonella typhimurium NCTC 74; format: cell-based; design: key to Intensity of fluorescence, Salmonella typhimurium NCTC 74 / F: fluorescence (intensity), Salmonella typhimurium NCTC 74 / Intensity of the fluorescence, Salmonella typhimurium NCTC 74: − = no fluorescence detected; +/− = weak fluorescence; + = medium fluorescence; ++ = strong fluorescence
Method: as §1, §2, §3

## CN1CCN(c2ccc([N+](=O)[O-])c(-c3nc4ccccc4s3)c2)CC1 [Substrate 23]
[1]
  Intensity of the fluorescence, Candida glabrata NCPF 3943: −
[2]
  Intensity of the fluorescence, Morganella morganii 462403 (wild): +
[3]
  Intensity of the fluorescence, MRSA NCTC 11939: +/−
[4]
  Intensity of the fluorescence, Acinetobacter baumanii ATCC 19606: −
[5]
  Intensity of the fluorescence, Staphylococcus aureus NCTC 6571: V.
[6]
  Intensity of the fluorescence, Enterobacter cloacae NCTC 11936: +
[7]
  Intensity of the fluorescence, Enterococcus faecails NCTC 775: −
[8]
  Intensity of the fluorescence, Serratia marcescens NCTC 10211: +
[9]
  Intensity of the fluorescence, Yersinia enterocolitica NCTC 11176: −
[10]
  Intensity of the fluorescence, Staphylococcus epidermidis NCTC 11047: −
[11]
  Intensity of the fluorescence, Listeria monocytogenes NCTC 11994: −
[12]
  Intensity of the fluorescence, Candida albicans ATCC 90028: −
[13]
  Intensity of the fluorescence, Enterococcus faecium NCTC 7171: −
[14]
  Intensity of the fluorescence, Streptococcus pyogenes NCTC 8306: −
[15]
  Intensity of the fluorescence, Providencia rettgeri NCTC 7475: +
[16]
  Intensity of the fluorescence, Bacillus subtilis NCTC 9372: −
[17]
  Intensity of the fluorescence, Citrobacter freundii 46262 (wild): +
[18]
  Intensity of the fluorescence, Pseudomonas aeruginosa NCTC 10662: +
[19]
  Intensity of the fluorescence, Escherichia coli NCTC 10418: −
[20]
  Intensity of the fluorescence, Salmonella typhimurium NCTC 74: +
